Where a name gives a salt, the structure may show the parent alone.
Key:
Type in all cases: in vivo
[1] = system: dermatitis manifesting NC mice; experiment: Test Example 3: effect on dermatitis manifesting NC mouse models (dermatitis score); conditions: 0.01% in 100% ethanol, 200 μl on dorsal back seven times a week for 4 weeks; FIGS. 1 and 2; P<0.05
Procedure: By suitably modifying a method known to the skilled artisan (Jpn. J. Pharmacol. 76, 175-183 (1998) Jun Hiroi, et al. Effects of Tacrolimus Hydrate (FK-506) Ointment on Spontaneous Dermatitis in NC/Nga Mice), the following test was conducted in order to confirm the antipruritic effect of prostaglandins. (Method) Animals: Four-week old SPF NC mice (male) were purchased from Japan SLC; right after their arrival, the SPF NC mice were kept together with dermatitis manifesting male NC mice (older than 20 weeks) for 2 weeks under the following conditions so as to induce itch-evoked scratching behavior. A group of mice manifesting dermatitis and another group of mice not manifesting dermatitis, each consisting of four animals, were allowed to cohabit in a sawdust cage (34×17×39 cm) and kept in an animal house set at room temperature (23±3° C.) and at a humidity of 55±15% under illumination for 12 hours (from 7:00 am to […]). After 2-wk cohabitation, the purchased mice were taken out of the cage and transferred into another cage, where a group of 8 animals were further kept for 14 weeks until the test. […] The mean value ± standard deviation was calculated from the dermatitis scores for each group, and then statistically processed by t-test to determine statistical significance between each drug administration group and ethanol-treated group.

[2] = system: NC/Nga mice manifesting atopic dermatitis; experiment: Test Example 2: effect on the spontaneous, itch-evoked scratching behavior of NC mice (percent itch suppression); conditions: for % Inhibition (percent itch suppression): total 24-hr scratching counts before vs after, N = 8
Procedure: Twenty-week-old NC/Nga mice each weighing about 30 g and manifesting atopic dermatitis were purchased from SLC and subjected to the following experiment. A magnet was buried in both hind paws of each mouse and by detecting its magnetism, the movement of the paws was measured with an itch measuring system (product of Neuroscience). Among the scratching actions, those lasting 1.5 seconds or longer were considered itch-evoked and their number was counted continuously. […] Prostaglandin E2 (PGE2; Cayman Chemical), prostaglandin D2 (PGD2; Cayman Chemical), limaprost (synthetic), sulprostone (synthetic) and beraprost (synthetic) were used as drugs according to the present invention. The subsequent 24-hr itch-evoked scratching behavior was measured and the number of itch-evoked scratchings after drug application was compared with the initial count. The experimental data was processed to calculate the percent itch suppression on the basis of the total 24-hr itch-evoked scratching counts before and after drug application (Table 2). [formula]
For significance testing, the itch-evoked scratching counts that were obtained before and after drug application from individual animals in each group treated with a specific concentration of drug were processed by a paired t-test. Differences with a significance level of 0.5% or less were determined as “significant.”
The same test was repeated using 100% ethanol as a control and, as comparative drugs, dexamethasone (a steroid; Wako Pure Chemical Industries, Ltd.), tacrolimus (FK-506, an immunosuppressive; Fujisawa Pharmaceutical Co., Ltd.) and chlorpheniramine maleate (an antihistamine; Kongo Chemical Co., Ltd.) at the concentrations shown in Table 2 below, provided that chlorpheniramine maleate was administered orally.

[3] = system: NC/Nga mice manifesting atopic dermatitis; experiment: Case 2: effects of external use of tacrolimus and dexamethasone on spontaneous itch-evoked scratching behavior in NC/Nga mice; conditions: 0.1% in 100% ethanol, 200 μl applied onto head and dorsal skin; paw movements lasting 1.5 seconds or longer; before application: tacrolimus group 600 ± 64, dexamethasone group 567 ± 77
Procedure: Experimental animals used were 14-week-old NC/Nga male mice, each weighing about 30 g and manifesting atopic dermatitis, and were divided into groups of 6 mice each.
To perform this test, a commercially available itch measuring system (product of Neuroscience) was used. After magnets for scratch measurement were inserted into both hind paws of each of the above animals, the animals were individually placed in a measurement cage and measured for the number of scratchings over 24 hours (the value before drug application). Then, 200 μl each of 0.1% tacrolimus (Fujisawa Pharmaceutical Co., Ltd.) and dexamethasone (Wako Pure Chemical Industries, Ltd.) dissolved in 100% ethanol were applied onto the head and dorsal skin, followed by recording again the number of scratchings over 24 hours (the value after drug application). The control group received 100% ethanol alone. The results obtained were processed to score itch-evoked scratching behavior, assuming that each paw movement lasting 1.5 seconds or longer was counted as one scratch reflex, followed by statistical analysis to determine statistical significance between the values before and after drug application.

[4] = system: NC/Nga mice manifesting atopic dermatitis; experiment: Test Example 1: effect on the spontaneous, itch-evoked scratching behavior of NC mice; conditions: for % Occurrence of scratching behavior: 0.1% in 100% ethanol, 0.2 ml/mouse on dorsal skin, count before drug application set to 100%, scratchings 1.5 seconds or longer, N = 6
Procedure: Twenty-week-old NC/Nga mice each weighing about 30 g and manifesting atopic dermatitis were purchased from SLC and subjected to the following experiment. A magnet was buried in both hind paws of each mouse and by detecting its magnetism, the movement of the paws was measured with an itch measuring system (product of Neuroscience). Among the scratching actions, those lasting 1.5 seconds or longer were considered itch-evoked and their number was counted continuously. […] Since there was a wide range of variation among individual animals, the experimental data was scored assuming that the initial count before drug application was set to 100%. The same test was repeated using 100% ethanol as a control and dexamethasone (a steroid; Wako Pure Chemical Industries, Ltd.) and tacrolimus (an immunosuppressive; Fujisawa Pharmaceutical Co., Ltd.) as comparative drugs.

[5] = concentration 0.01% in 100% ethanol, 0.2 ml/mouse on dorsal skin
[6] = concentration 0.1% in 100% ethanol, 0.2 ml/mouse on dorsal skin
[7] = external application of 0.1%, same extent as dexamethasone and tacrolimus

Row | SMILES | % Inhibition (percent itch suppression) [2, 5] [%] | % Inhibition (percent itch suppression) [2, 6] [%] | % Occurrence of scratching behavior [4] [%] | other results
1 | CC#CCC(C)[C@H](O)/C=C/[C@@H]1[C@H]2c3cccc(CCCC(=O)O)c3O[C@H]2C[C@H]1O (mixture of isomers) [Beraprost, beraprost] | 45.6 | 56.9 | – | effect on dermatitis scores compared to the ethanol-treated group [1]: significant suppressive effect
2 | CN(C)CCC(c1ccc(Cl)cc1)c1ccccn1 (centres unmarked) [Chlorpheniramine, chlorpheniramine maleate] | – | – | – | % Inhibition (percent itch suppression) ([2]; 10 mg/kg, p.o.): 3.56%; suppression of spontaneous itch-evoked scratching behavior (in words) ([2]; administered orally, 10 mg/kg): no suppression
3 | C[C@@H]1C[C@H]2[C@@H]3CCC4=CC(=O)C=C[C@]4(C)[C@@]3(F)[C@@H](O)C[C@]2(C)[C@@]1(O)C(=O)CO [Dexamethasone, dexamethasone] | – | 49.5 | 50 ± 9 | number of scratchings over 24 hours, after drug application [3]: 286 ± 52
4 | CCCC[C@H](C)C[C@H](O)/C=C/[C@H]1[C@H](O)CC(=O)[C@@H]1CCCC/C=C/C(=O)O [Limaprost, limaprost] | 79.9 | – | – | effect on dermatitis scores compared to the ethanol-treated group [1]: significant suppressive effect; % Inhibition (percent itch suppression) ([2]; concentration 0.001% in 100% ethanol, 0.2 ml/mouse on dorsal skin): 36.2%
5 | CCCCC[C@H](O)/C=C/[C@H]1C(=O)C[C@H](O)[C@@H]1C/C=C\CCCC(=O)O [PGD2, prostaglandin D2] | 56.3 | – | – | –
6 | CCCCC[C@H](O)/C=C/[C@H]1[C@H](O)CC(=O)[C@@H]1C/C=C\CCCC(=O)O [PGE2, prostaglandin E2] | – | 54.3 | 46 ± 10 | effect on spontaneous itch-evoked scratching behavior (in words) [4, 7]: strongly reduced; effect on spontaneous itch-evoked scratching behavior in NC mice (in words) [2, 7]: strongly reduced
7 | CS(=O)(=O)NC(=O)CCC/C=C\C[C@H]1C(=O)C[C@@H](O)[C@@H]1/C=C/[C@@H](O)COc1ccccc1 [Sulprostone, sulprostone] | 24.0 | – | – | –
8 | C=CC[C@@H]1/C=C(\C)C[C@H](C)C[C@H](OC)[C@H]2O[C@@](O)(C(=O)C(=O)N3CCCC[C@H]3C(=O)O[C@H](/C(C)=C/[C@@H]3CC[C@@H](O)[C@H](OC)C3)[C@H](C)[C@@H](O)CC1=O)[C@H](C)C[C@@H]2OC [Tacrolimus, tacrolimus] | – | 55.5 | 45 ± 8 | number of scratchings over 24 hours, after drug application [3]: 267 ± 45
